Assay results published in patent publication US9828339B2, “Biphenyl derivatives and methods for preparing same” (DONG-A ST CO., LTD, priority 2013, dated 2017).

What follows are molecules tested against T1, human muscarinic M3 receptor (Homo sapiens (Human), UniProt P20309) (assay: Antagonism assay on human muscarinic M3 receptor (carbachol-induced intracellular calcium, FLIPR Calcium 5, transfected Cos-7 cells)). Conditions: functional inhibitory constant; carbachol-induced intracellular calcium in Cos-7 cells transfected with human M3 receptor.
T1 sequence (P20309 whole entry): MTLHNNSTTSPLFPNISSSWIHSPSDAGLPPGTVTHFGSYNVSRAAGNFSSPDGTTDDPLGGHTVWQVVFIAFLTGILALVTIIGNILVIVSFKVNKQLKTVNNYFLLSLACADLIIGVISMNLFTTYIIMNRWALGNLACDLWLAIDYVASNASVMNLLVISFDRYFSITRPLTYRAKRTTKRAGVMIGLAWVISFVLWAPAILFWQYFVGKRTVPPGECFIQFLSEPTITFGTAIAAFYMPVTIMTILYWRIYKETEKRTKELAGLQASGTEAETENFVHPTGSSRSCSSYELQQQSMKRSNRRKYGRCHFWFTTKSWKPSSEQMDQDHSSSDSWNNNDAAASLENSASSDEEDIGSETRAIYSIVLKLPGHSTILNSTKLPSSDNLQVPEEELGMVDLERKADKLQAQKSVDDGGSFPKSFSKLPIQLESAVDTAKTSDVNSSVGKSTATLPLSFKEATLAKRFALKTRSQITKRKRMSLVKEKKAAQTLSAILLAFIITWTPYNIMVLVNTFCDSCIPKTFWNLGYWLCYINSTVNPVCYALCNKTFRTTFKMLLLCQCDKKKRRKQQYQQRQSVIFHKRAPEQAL
Assay type: cell-based
Procedure: [Experimental Example 2] Antagonism Assay on Human Muscarinic M3 Receptor
The antagonism assay for various compounds of the present invention was conducted on antagonism to human M3 receptor in Cos-7 cells that was transfected with plasmid coding human muscarinic M3 receptor. Test compounds in various concentrations were pre-treated to the cells for 3 minutes, and then the changes of intracellular calcium were measured after treating the same with carbachol (i.e. muscarinic receptor agonist). The FLIPR® Calcium 5 assay (Molecular Devices) and Flex3 device (Molecular Devices) were used to measure concentration of calcium. Amounts of calcium before and after carbachol treatment were set as 0% and 100% respectively. Inhibition rates (%) by the compounds for increase in intracellular calcium by carbachol were calculated. The antagonistic potency of the test compounds on human muscarinic M3 receptor was calculated as the functional inhibitory constant (Ki), which can be calculated from concentration (IC50) of compound inhibiting 50% of activity of carbachol according to Cheng and Prusoff equation.

| Ki | SMILES |
| --- | --- |
| 3.25 nM | CN1CC[C@@H](COC(=O)Nc2ccccc2-c2ccc(F)cc2F)C1 [Example 157, (R)-(1-methylpyrrolidin-3-yl)methyl-(2′,4′-difluoro-[1,1′-biphenyl]-2-yl)carbamate] |

Each molecule was assayed against T1, human muscarinic M3 receptor (assay: Binding assay on human muscarinic M3 receptor ([3H]-methyl scopolamine displacement)). Conditions: membranes overexpressing human M3 receptor, Ki from IC50 by Cheng-Prusoff, read-out: Binding Affinity to M3 Receptor, Ki.
Outline: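 Displacement of [3H]-methyl scopolamine from membranes overexpressing human M3, in Tris-HCl, 25 °C, 120 min; filter-bound radioactivity counted. Nonspecific binding with 5 μM atropine; Ki from IC50 via Cheng-Prusoff.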

| SMILES | Ki |
| --- | --- |
| CN1CCC[C@H]1COC(=O)Nc1ccc(F)cc1-c1cc(Cl)cc(C(F)(F)F)c1 [Example 215, (S)-(1-methylpyrrolidin-2-yl)methyl(3′-chloro-5-fluoro-5′-(trifluoromethyl)-[1,1′-biphenyl]-2-yl)carbamate] | > 1000 nM |
| CN1CCC[C@H]1COC(=O)Nc1ccc(F)cc1-c1ccccc1 [Example 200, (S)-(1-methylpyrrolidin-2-yl)methyl(5-fluoro-[1,1′-biphenyl]-2-yl)carbamate] | 2.03 nM |
| Cc1ccc(-c2ccccc2NC(=O)OCCC2CCCN2C)cc1F (stereo not drawn) [Example 14, 2-(1-methylpyrrolidin-2-yl)ethyl((3′-fluoro-4′-methyl)-[1,1′-biphenyl]-2-yl)carbamate] | 12.4 nM |
| CN1CCCC1CCOC(=O)Nc1ccccc1-c1cccc(F)c1F (stereo not drawn) [Example 184, 2-(1-Methylpyrrolidin-2-yl)ethyl(2′,3′-difluoro-[1,1′-biphenyl]-2-yl)carbamate] | 63.5 nM |
| CN1CCCC1CCOC(=O)Nc1ccc(F)cc1-c1cc(F)cc(F)c1 (stereo not drawn) [Example 20, 2-(1-methylpyrrolidin-2-yl)ethyl(3′,5,5′-trifluoro-[1,1′-biphenyl]-2-yl)carbamate] | 20.7 nM |
| CCN1CC[C@H](COC(=O)Nc2ccccc2-c2cccc(C)c2)C1 [Example 105, (S)-(1-ethylpyrrolidin-3-yl)methyl (3′-methyl-[1,1′-biphenyl]-2-yl)carbamate] | 19.6 nM |
| CN1CCC[C@H]1COC(=O)Nc1ccc(F)cc1-c1ccc(C(F)(F)F)cc1C(F)(F)F [Example 218, (S)-(1-methylpyrrolidin-2-yl)methyl(5-fluoro-2′,4′-bis(trifluoromethyl)-[1,1′-biphenyl]-2-yl)carbamate] | > 1000 nM |
| CC(C)CN1CCC[C@H]1COC(=O)Nc1ccccc1-c1ccccc1 [Example 107, (S)-(1-isobutylpyrrolidin-2-yl)-methyl [1,1′-biphenyl]-2-ylcarbamate] | 752 nM |
| CN1CCCC1CCOC(=O)Nc1ccccc1-c1c(F)cccc1F (stereo not drawn) [Example 185, 2-(1-Methylpyrrolidin-2-yl)ethyl(2′,6′-difluoro-[1,1′-biphenyl]-2-yl)carbamate] | 46.1 nM |
| CN1CCCC1CCOC(=O)Nc1ccccc1-c1ccc(N)c(Cl)c1 (stereo not drawn) [Example 39, 2-(1-methylpyrrolidin-2-yl)ethyl(4′-amino-3′-chloro-[1,1′-biphenyl]-2-yl)carbamate] | 28 nM |
| CN1CC[C@H](COC(=O)Nc2ccc(F)cc2-c2cc(F)cc(F)c2)C1 [Example 96, (S)-(1-methylpyrrolidin-3-yl)methyl (3′,5,5′-trifluoro-[1,1′-biphenyl]-2-yl)carbamate] | 17.6 nM |
| COc1ccc(-c2cc(F)ccc2NC(=O)OC[C@@H]2CCCN2C)cc1OC [Example 220, (S)-(1-methylpyrrolidin-2-yl)methyl (5-fluoro-3′,4′-dimethoxy-[1,1′-biphenyl]-2-yl)carbamate] | > 1000 nM |
| CN1CCCC1CCOC(=O)Nc1ccccc1-c1ccc(OC(F)(F)F)cc1 (stereo not drawn) [Example 10, 2-(1-methylpyrrolidin-2-yl)ethyl(4′-trifluoromethoxy-[1,1′-biphenyl]-2-yl)carbamate] | 401 nM |
| CN1CCC[C@H]1COC(=O)Nc1ccc(F)cc1-c1cccc(C#N)c1 [Example 178, (S)-(1-methylpyrrolidin-2-yl)methyl (3′-cyano-5-fluoro-[1,1′-biphenyl]-2-yl)carbamate] | > 1000 nM |
| Cc1ccc(NC(=O)OC[C@@H]2CCN(C)C2)c(-c2cccc(F)c2)c1 [Example 98, (R)-(1-methylpyrrolidin-3-yl)methyl (3′-fluoro-5-methyl-[1,1′-biphenyl]-2-yl)carbamate] | 46.2 nM |
| CN1CCC[C@H]1COC(=O)Nc1ccc(F)cc1-c1ccc(C(C)(C)C)cc1 [Example 209, (S)-(1-methylpyrrolidin-2-yl)methyl (4′-(tert-butyl)-5-fluoro-[1,1′-biphenyl]-2-yl)carbamate] | > 1000 nM |
| CN1CCC[C@H]1COC(=O)Nc1ccc(F)cc1-c1ccc(F)c(F)c1 [Example 171, (S)-(1-methylpyrrolidin-2-yl)methyl (3′,4′,5-trifluoro-[1,1′-biphenyl]-2-yl)carbamate] | 16.9 nM |
| Cc1ccc(NC(=O)OC[C@@H]2CCNC2)c(-c2ccccc2)c1 [Example 86, (R)-pyrrolidin-3-ylmethyl (5-methyl-[1,1′-biphenyl]-2-yl)carbamate] | 111 nM |
| CCN1CC[C@H](COC(=O)Nc2ccccc2-c2ccccc2)C1 [Example 103, (S)-(1-ethylpyrrolidin-3-yl)methyl [1,1′-biphenyl]-2-ylcarbamate] | 13 nM |
| CCOc1cccc(-c2cc(F)ccc2NC(=O)OC[C@@H]2CCCN2C)c1 [Example 219, (S)-(1-methylpyrrolidin-2-yl)methyl(3′-ethoxy-5-fluoro-[1,1′-biphenyl]-2-yl)carbamate] | > 1000 nM |
| COc1ccc(NC(=O)OC[C@@H]2CCCN2C)c(-c2ccc(Cl)c(Cl)c2)c1 [Example 225, (S)-(1-methylpyrrolidin-2-yl)methyl (3′,4′-dichloro-5-methoxy-[1,1′-biphenyl]-2-yl)carbamate] | 53.6 nM |
| CN1CC[C@H](COC(=O)Nc2ccccc2-c2cc(Cl)cc(Cl)c2)C1 [Example 119, (S)-(1-methylpyrrolidin-3-yl)methyl(3′,5′-dichloro-[1,1′-biphenyl]-2-yl)carbamate] | 42.3 nM |
| CN1CCC[C@H]1COC(=O)Nc1ccc(F)cc1-c1cccc(C(F)(F)F)c1F [Example 214, (S)-(1-methylpyrrolidin-2-yl)methyl(2′,5-difluoro-3′-(trifluoromethyl)-[1,1′-biphenyl]-2-yl)carbamate] | > 1000 nM |

The next lines start with the values.

| Ki | SMILES |
| --- | --- |
| 29.6 nM | CN1CC[C@@H](COC(=O)Nc2ccccc2-c2ccc(F)cc2F)C1 [Example 157, (R)-(1-methylpyrrolidin-3-yl)methyl-(2′,4′-difluoro-[1,1′-biphenyl]-2-yl)carbamate] |
| 82.7 nM | COc1cc(Cl)cc(-c2cc(F)ccc2NC(=O)OC[C@@H]2CCN(C)C2)c1 [Example 139, (R)-(1-methylpyrrolidin-3-yl)methyl(3′-chloro-5-fluoro-5′-methoxy-[1,1′-biphenyl]-2-yl)carbamate] |
| > 1000 nM | COc1ccc(NC(=O)OCCC2CCCN2C)c(-c2cc(F)cc(F)c2)c1 (stereo not drawn) [Example 62, 2-(1-Methylpyrrolidin-2-yl)ethyl(3′,5′-difluoro-5-methoxy-[1,1′-biphenyl]-2-yl)carbamate] |
| 5.34 nM | CN1CCC[C@H]1COC(=O)Nc1ccccc1-c1ccc(F)c(F)c1 [Example 162, (S)-(1-methylpyrrolidin-2-yl)methyl(3′,4′-difluoro-[1,1′-biphenyl]-2-yl)carbamate] |
| 6.18 nM | Cc1cccc(-c2cc(F)ccc2NC(=O)OC[C@H]2CCN(C)C2)c1 [Example 94, (S)-(1-methylpyrrolidin-3-yl)methyl (5-fluoro-3′-methyl-[1,1′-biphenyl]-2-yl)carbamate] |
| 22.9 nM | CN1CCC[C@H]1COC(=O)Nc1ccccc1-c1cccc(O)c1 [Example 168, (S)-(1-methylpyrrolidin-2-yl)methyl(3′-hydroxy-[1,1′-biphenyl]-2-yl)carbamate] |
| 95.5 nM | CCc1cccc(-c2cc(F)ccc2NC(=O)OCCC2CCCN2C)c1 (stereo not drawn) [Example 44, 2-(1-methylpyrrolidin-2-yl)ethyl(3′-ethyl-5-fluoro-[1,1′-biphenyl]-2-yl)carbamate] |
| 18.3 nM | Cc1cccc(-c2cc(F)ccc2NC(=O)OC[C@H]2CCNC2)c1 [Example 83, (S)-pyrrolidin-3-ylmethyl (5-fluoro-3′-methyl-[1,1′-biphenyl]-2-yl)carbamate] |
| 1100 nM | COc1ccc(-c2ccccc2NC(=O)OCCC2CCCN2C)cc1 (stereo not drawn) [Example 5, 2-(1-methylpyrrolidin-2-yl)ethyl(4′-methoxy-[1,1′-biphenyl]-2-yl)carbamate] |
| > 1000 nM | CN1CCCC1CCOC(=O)Nc1ccccc1-c1ccccc1N (stereo not drawn) [Example 32, 2-(1-methylpyrrolidin-2-yl)ethyl(2′-amino-[1,1′-biphenyl]-2-yl)carbamate] |
| 9.23 nM | CN1CCC[C@H]1COC(=O)Nc1ccccc1-c1cccc(N)c1 [Example 170, (S)-(1-methylpyrrolidin-2-yl)methyl(3′-amino-[1,1′-biphenyl]-2-yl)carbamate] |
| 14.2 nM | CCN1CC[C@@H](COC(=O)Nc2ccccc2-c2cccc(C)c2)C1 [Example 104, (R)-(1-ethylpyrrolidin-3-yl)methyl (3′-methyl-[1,1′-biphenyl]-2-yl)carbamate] |
| 115 nM | COc1ccc(-c2ccccc2)c(NC(=O)OCCC2CCCN2C)c1 (stereo not drawn) [Example 25, 2-(1-methylpyrrolidin-2-yl)ethyl(4-methoxy-[1,1′-biphenyl]-2-yl)carbamate] |
| 69.4 nM | CN1CC[C@H](COC(=O)Nc2ccc(F)cc2-c2ccc(Cl)cc2)C1 [Example 127, (S)-(1-methylpyrrolidin-3-yl)methyl(4′-chloro-5-fluoro-[1,1′-biphenyl]-2-yl)carbamate] |
| 110 nM | Cc1cc(C)cc(-c2cc(F)ccc2NC(=O)OC[C@@H]2CCCN2C)c1 [Example 208, (S)-(1-methylpyrrolidin-2-yl)-methyl(5-fluoro-3′,5′-dimethyl-[1,1′-biphenyl]-2-yl)-carbamate] |
